Consider 1 compound from patent publication US20230293428A1, “Drug delivery via contact lenses and similar ophthalmic devices” (Colorado School of Mines, priority 2021, published 2023).

The nature of series [1]: In vitro timolol release from drug-loaded contact lenses into PBS, fitted to Fick's diffusion (perfect sink) model. In kind it is physicochemical. As to the method:
After drug loading, the lenses were removed from the timolol maleate solution and gently wiped with KimWipe to remove the excess solution remaining on the surface. Each lens was then placed in 3 mL of fresh PBS solution for in vitro drug release. The optical absorption spectra of the release media were measured by the same spectrophotometer used in Example 2. The concentration of the timolol in the release medium was determined by fitting the optical absorption spectra in the range of 260 to 340 nm with the calibration spectrum of timolol maleate using MATLAB's minimization of least square error method. The drug release profiles were fitted using a perfect sink model to determine drug diffusivity. By solving the Fick's law diffusion equation, the mass percent of the drug released as a function of time is given by […] To further investigate this effect, the diffusion coefficients of timolol in the lenses were calculated by fitting the release curves to Fick's diffusion equation as described above. […] As Table 5 illustrates, the diffusion coefficients of timolol from these lenses are about a third of the diffusion coefficient from control (blank/unloaded) lenses (circular data points in FIG. 5), which results in extension of release by about 10 hours.

Series [2] is described as follows: Partition coefficient of timolol maleate between contact lens and loading solution. In kind it is physicochemical. As to the method: Timolol maleate was dissolved in PBS to prepare a 1.5 mg/mL solution. Each hydrated contact lens (both blank and vitamin E-loaded) was placed in 3 mL of this solution for 7 days to load the drug in the lenses.
The partition coefficient K of the drug is defined as the ratio of the concentration of the drug in the lens to the concentration of the drug in the medium when equilibrium is reached during the drug loading process. […] The concentration in the lens after 7 days of loading can be determined by dividing the total mass of the drug in the lens by the volume, and the mass of the drug can be determined from the release data based on the assumption that 100% of the drug is released due to the large volume of release medium compared to the lens volume. Therefore, the partition coefficient K is calculated as
where Clens and Cloading are the concentration of the drug in the lens and the loading solution at equilibrium, respectively, Vrelease and Vlens are the volume of the release medium and the contact lens, respectively, and Crelease is the final concentration of the drug in the release medium.

Setting [3] is: lens with 0 wt % vitamin E (blank), solvent n/a.
Where [4] appears, read: lens with 8.4 wt % vitamin E, loaded from pure EtOH.
[5] abbreviates: lens with 8.6 wt % vitamin E, loaded from 75:25 EtOH:H2O.
The mark [6] stands for this setting: lens with 9.3 wt % vitamin E, loaded from 85:15 EtOH:H2O.
Where [7] appears, read: lens with 19.3 wt % vitamin E, loaded from pure EtOH.
Setting [8] is: lens with 19.9 wt % vitamin E, loaded from 85:15 EtOH:H2O.
[9] abbreviates: lenses with vitamin E loads of 8 to 10 wt %.

Each structure is given as a SMILES string. Counter-ions that a name gives are not always drawn.

`CC(C)(C)NC[C@H](O)COc1nsnc1N1CCOCC1` [timolol maleate, Timolol maleate]: the “D, diffusion coefficient of timolol maleate from contact lens” value in series [1] (setting [3]) was 2.04 · 10^−13 ± 0 m^2/s; in series [1] (setting [4]), “(7.42 ± 1.49) · 10^−14 m^2/s”; in series [1] (setting [5]), “(6.20 ± 0.329) · 10^−14 m^2/s”; in series [1] (setting [6]), 5.09 · 10^−14 ± 0 m^2/s; in series [1] (setting [7]), “(1.62 ± 0.219) · 10^−14 m^2/s”; in series [1] (setting [8]) it was “(13.2 ± 0.936) · 10^−15 m^2/s”. For the same compound, in series [1] (setting [9]), the “diffusion coefficient of timolol relative to control (blank/unloaded) lenses” value is recorded as “about a third”. Also, in series [1] (setting [9]), the “extension of timolol release versus control (blank) lenses” value is recorded as “about 10 hours”. The timolol release time result in series [1] (lenses with vitamin E loads of 8 to 10 wt %, made from different loading solutions) is on record as “about 12 hours”. In addition, in series [1] (lenses with vitamin E loads of 19 to 20 wt %, two different solutions), the “duration of timolol release” value was “more than 70 hours”. In addition, the results for the “duration of release of timolol from the lens” value in series [1] (vitamin E loads of about 10 wt %) and in series [1] (vitamin E loads of about 20 wt %) were “about 10 hours” and “about 70 hours”, respectively. Moreover, the “K, partition coefficient of timolol maleate in contact lens” value in series [2] (setting [3]) is 0.7125 ± 0.0168; in series [2] (setting [4]), 0.6050 ± 0.0171; in series [2] (setting [5]), 0.6757 ± 0.0152; in series [2] (setting [6]) it was 0.7969 ± 0.0242; in series [2] (setting [7]), 0.5739 ± 0.0069; in series [2] (setting [8]), 0.6108 ± 0.0489.
